Data set [1] has as its target Candida orthopsilosis Co 90-125 carbonyl reductase CoCR 13 (Genbank XP_003867714.1), wild type (WT), SEQ ID NO: 1 (Lodderomyces orthopsilosis, UniProt H8WZT2). As to the kind of experiment: Enzyme kinetic parameters (NADPH consumption at 340 nm), initial carbonyl reductase. It counts as biochemical. An excerpt: On this basis, serine (Ser) at position 126 is replaced with alanine (Ala), to obtain the triple mutant R129L/D210T/S126A (amino acid sequence as shown in SEQ ID NO: 5).
Through gene mining, the carbonyl reductase gene with Genbank ID XP_003867714.1 was screened from the NCBI database. The open reading frame of this gene is 1005 bp long, the carbonyl reductase encoded by it consists of 334 amino acids, and its amino acid sequence (334aa) is:
(§1) One enzyme activity unit U is defined as the amount of enzyme required to consume 1 μmol NADPH within 1 minute.
(§2) The substrate concentration was set to be 0.1-10 mM, and the rest was the same enzyme activity determination system and reaction conditions as described above.

Data set [2] deals with Candida orthopsilosis Co 90-125 carbonyl reductase CoCR 13 variant R129L/D210T, SEQ ID NO: 3 (Lodderomyces orthopsilosis, UniProt H8WZT2, D210T/R129L). The data set can be described thus: Enzyme kinetic parameters (NADPH consumption at 340 nm), double mutant. The data set is classed as biochemical.
Description: (§3) The present disclosure starts with the substrate channel of the carbonyl reductase protein structure of Candida orthopsilosis Co 90-125 (amino acid sequence as shown in SEQ ID NO: 1) with ID XP 003867714.1 in Genbank, analyzes the entrance segment and internal structural characteristics of the substrate channel, and performs iterative saturation mutagenesisit through semi-rational design, so as to determine that the key factor affecting the initial enzymatic properties of carbonyl reductase is the amino acids at positions R129, D210 and S126. […] On this basis, serine (Ser) at position 126 is replaced with alanine (Ala), to obtain the triple mutant R129L/D210T/S126A (amino acid sequence as shown in SEQ ID NO: 5).
(§4) The double mutation R129L/D210T changed the codons 385-387 of the carbonyl reductase gene sequence from CGT to CTG, thereby replacing the 129th position of the amino acid sequence from arginine (R) to leucine (L); changed the codons 628-630th position from GAT to ACC, thereby the 210th position of the amino acid sequence from aspartic acid (D) to threonine (T), to obtain an enzyme mutant, wherein its amino acid sequence is shown in SEQ ID NO: 3, and the nucleotide sequence of the coding gene is shown in SEQ ID NO: 4.
as §1, §2

Data set [3] has as its target Candida orthopsilosis Co 90-125 carbonyl reductase CoCR 13 variant R129L/D210T/S126A, SEQ ID NO: 5 (Lodderomyces orthopsilosis, UniProt H8WZT2, D210T/R129L/S126A). As to the kind of experiment: Enzyme kinetic parameters (NADPH consumption at 340 nm), triple mutant. The data set is classed as biochemical.
Description: as §3
(§5) While the triple mutation changed from AGC to GCG at codons 376-378 of the carbonyl reductase double mutant gene sequence, thereby replacing serine(S) with alanine (A) at position 126 of the amino acid sequence, to obtain a triple mutant, wherein its amino acid sequence is shown in SEQ ID NO: 5, and the nucleotide sequence of the coding gene is shown in SEQ ID NO: 6.
as §1, §2

In data set [4] the test system is CCOC(=O)CCCCC(=O)CCCl. The data set can be described thus: Enzyme kinetic parameters (NADPH consumption at 340 nm), double mutant. The data set is classed as biochemical, Candida orthopsilosis Co 90-125. Conditions: other: R129L/D210T, substrate 0.1-10 mM, PB pH 7.0, 30° C.
Description: as §3, §4, §1, §2

For data set [5], the system named is CCOC(=O)CCCCC(=O)CCCl. As to the kind of experiment: Enzyme kinetic parameters (NADPH consumption at 340 nm), triple mutant. Conditions: other: R129L/D210T/S126A, substrate 0.1-10 mM, PB pH 7.0, 30° C. It counts as biochemical, Candida orthopsilosis Co 90-125.
Description: as §3, §5, §1, §2

Setting [6] is: WT, substrate 0.1-10 mM, NADPH, PB pH 7.0, 30° C.
[7] abbreviates: R129L/D210T, substrate 0.1-10 mM, NADPH, PB pH 7.0, 30° C.
Setting [8] is: R129L/D210T/S126A, substrate 0.1-10 mM, NADPH, PB pH 7.0, 30° C.

As for `CCOC(=O)CCCCC(=O)CCCl` [8-chloro-6-oxooctanoic acid ethyl ester], the results for the Relative catalytic efficiency in data set [1] (WT as reference (1.00)), in data set [2] (R129L/D210T relative to WT) and in data set [3] (R129L/D210T/S126A relative to WT) were 1.00, 31.65 and 93.42, respectively. Besides, the figures for the “Catalytic efficiency (kcat/Km)” value in data set [1] (setting [6]), in data set [2] (setting [7]) and in data set [3] (setting [8]) were 920 M⁻¹ s⁻¹, 29120 M⁻¹ s⁻¹ and 85950 M⁻¹ s⁻¹, respectively. For the same compound, the “Number of conversions (kcat)” value in data set [1] (setting [6]) was 4.7 ± 0.33 s⁻¹; in data set [2] (setting [7]), 50.60 ± 1.49 s⁻¹; in data set [3] (setting [8]), 69.46 ± 2.50 s⁻¹. Besides, the “catalytic efficiency increase compared to the initial carbonyl reductase” value was 31.65 times in data set [2] (double mutant vs initial carbonyl reductase) and 93.42 times in data set [3] (triple mutant vs initial carbonyl reductase).
On to “Candida orthopsilosis Co 90-125 carbonyl reductase CoCR 13 variant R129L/D210T, SEQ ID NO: 3 (Lodderomyces orthopsilosis Co 90-125; D210T/R129L)”, for which, in data set [4], the Michaelis-Menten constant (Km) worked out at 1740 ± 160 µM.
With “Candida orthopsilosis Co 90-125 carbonyl reductase CoCR 13 variant R129L/D210T/S126A, SEQ ID NO: 5 (Lodderomyces orthopsilosis Co 90-125; D210T/R129L/S126A)”, the Km in data set [5] was 810 ± 110 µM.

For the origin of these results see patent US12319939B2, “Carbonyl reductase mutant and its application” (priority 2023, dated 2025).
